Patent US20230233569A1 (Revolution Medicines, Inc., priority 2020, published 2023)
Read-outs that look alike come from different tables or passages of the source.

Experiments:
[1] = molecular target: KRAS Q61H (Homo sapiens, UniProt P01116+P62937, Q61H); assay: Disruption of BRAF RBD interaction with Ras (FRET / MOA assay, with Cyclophilin A); assay type: biochemical; details: KRAS Q61H; read-out: KRAS Q61H FRET data IC50
Procedure, shortened: (§1)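 IC50 reflects compound-driven Ras:Cyclophilin A ternary complex displacing BRAF RBD, read as lowered TR-FRET ratio relative to DMSO after Eu anti-His (10 nM) and APC anti-GST (50 nM) detection for 1.5 h. Prior incubation 3 h, 25° C, with 12.5 nM GMPPNP-loaded Ras, 50 nM BRAF RBD, 25 μM Cyclophilin A; top compound 30 μM.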

[2] = molecular target: NRAS Q61K (Homo sapiens, UniProt P01111+P62937, Q61K); assay: as above; assay type: biochemical; details: NRAS Q61K; read-out: NRAS Q61K FRET data IC50
Procedure, shortened: as §1

[3] = molecular target: NRAS Q61R (Homo sapiens, UniProt P01111+P62937, Q61R); assay: as above; assay type: biochemical; details: NRAS Q61R; read-out: NRAS Q61R FRET data IC50
Procedure, shortened: as §1

[4] = molecular target: NRAS WT (Homo sapiens, UniProt P01111+P62937); assay: as above; assay type: biochemical; details: NRAS WT; read-out: NRAS WT FRET data IC50
Procedure, shortened: as §1

[5] = system: NCI-H358 (K-Ras G12C); assay: CellTiter-Glo cell viability assay, 5-day treatment; assay type: cell-based; details: Homo sapiens, NCI-H358, 120 h, 5-day treatment; read-out: H358 Cell Viability assay data (K-Ras G12C, IC50)
Procedure, shortened: (§2)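 Seeded cells received test compound by direct dispensing. On day 5 the plates sat at room temperature approximately 30 minutes, then luminescence was measured. Data were normalized to DMSO and curve-fitted with four parameters.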

[6] = system: Capan-1 (K-Ras G12V); assay: as above; assay type: cell-based; details: Homo sapiens, CAPAN-1, 120 h, 5-day treatment; read-out: Capan-1 Cell Viability assay data (K-Ras G12V, IC50)
Procedure, shortened: as §2

[7] = molecular target: KRAS G12D (Homo sapiens, UniProt P01116+P62937, G12D); assay: Disruption of BRAF RBD interaction with Ras (FRET / MOA assay, with Cyclophilin A); assay type: biochemical
Procedure, shortened: (§3)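 Here, compound titrations (ten points, factor 3, from 30 μM final) act on nucleotide-bound K-Ras and Cyclophilin A, and ternary complex formation disrupts the RAF RBD interaction.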

[8] = molecular target: KRAS G12S (Homo sapiens, UniProt P01116+P62937, G12S); assay: as above; assay type: biochemical
Procedure, shortened: as §3

[9] = molecular target: KRAS G13C (Homo sapiens, UniProt P01116+P62937, G13C); assay: as above; assay type: biochemical
Procedure, shortened: as §3

[10] = molecular target: KRAS G12C (Homo sapiens, UniProt P01116+P62937, G12C); assay: as above; assay type: biochemical
Procedure, shortened: as §3

[11] = molecular target: KRAS G13D (Homo sapiens, UniProt P01116+P62937, G13D); assay: as above; assay type: biochemical
Procedure, shortened: as §3

[12] = molecular target: NRAS G12C (Homo sapiens, UniProt P01111+P62937, G12C); assay: as above; assay type: biochemical
[13] = molecular target: KRAS WT (Homo sapiens, UniProt P01116+P62937); assay: as above; assay type: biochemical
Procedure, shortened: as §3

[14] = molecular target: KRAS G12V (Homo sapiens, UniProt P01116+P62937, G12V); assay: as above; assay type: biochemical
Procedure, shortened: as §3

[15] = read-out: KRAS G12D FRET data, IC50
[16] = read-out: KRAS G12S FRET data, IC50
[17] = read-out: KRAS G13C FRET data, IC50
[18] = read-out: KRAS G12C FRET data, IC50
[19] = KRAS G13D, read-out: KRAS G13D FRET data IC50
[20] = NRAS G12C, read-out: NRAS G12C FRET data IC50
[21] = KRAS WT, read-out: KRAS WT FRET data IC50
[22] = KRAS G12V, read-out: KRAS G12V FRET data IC50

Chain of KRAS G12S (P01116 1-169 isoform P01116-2 G12S limits assumed): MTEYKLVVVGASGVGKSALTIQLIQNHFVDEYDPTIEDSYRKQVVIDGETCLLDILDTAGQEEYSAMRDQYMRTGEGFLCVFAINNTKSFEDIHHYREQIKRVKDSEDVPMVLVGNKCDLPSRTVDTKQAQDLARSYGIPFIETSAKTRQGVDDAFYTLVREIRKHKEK
Chain of KRAS G12S (P62937 whole entry): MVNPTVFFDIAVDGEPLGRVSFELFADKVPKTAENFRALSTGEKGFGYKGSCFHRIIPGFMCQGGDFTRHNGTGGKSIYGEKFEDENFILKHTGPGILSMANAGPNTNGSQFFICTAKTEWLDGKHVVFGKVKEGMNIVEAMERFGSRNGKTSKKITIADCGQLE
Chain of KRAS G13D (P01116 1-169 isoform P01116-2 G13D limits assumed): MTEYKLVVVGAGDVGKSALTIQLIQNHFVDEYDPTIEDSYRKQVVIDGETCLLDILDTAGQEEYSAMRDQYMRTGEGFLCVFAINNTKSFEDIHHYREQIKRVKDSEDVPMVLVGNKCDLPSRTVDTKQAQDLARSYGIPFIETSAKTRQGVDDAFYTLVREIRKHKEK
Chain of KRAS G13D (P62937 whole entry): as the sequence (P62937 whole entry) above
Chain of KRAS WT (P01116 1-169 isoform P01116-2 limits assumed): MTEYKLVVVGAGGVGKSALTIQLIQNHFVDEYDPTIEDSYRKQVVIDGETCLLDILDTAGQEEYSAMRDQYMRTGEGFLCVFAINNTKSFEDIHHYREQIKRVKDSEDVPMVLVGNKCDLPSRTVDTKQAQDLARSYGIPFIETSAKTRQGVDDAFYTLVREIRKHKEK
Chain of KRAS WT (P62937 whole entry): as the sequence (P62937 whole entry) above
Chain of KRAS G12C (P01116 1-169 isoform P01116-2 G12C): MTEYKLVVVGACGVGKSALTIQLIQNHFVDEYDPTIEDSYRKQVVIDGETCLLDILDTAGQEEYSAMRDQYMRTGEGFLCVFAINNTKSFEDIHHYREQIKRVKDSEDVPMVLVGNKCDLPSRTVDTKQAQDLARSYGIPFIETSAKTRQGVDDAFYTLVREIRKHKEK
Chain of KRAS G12C (P62937 whole entry): as the sequence (P62937 whole entry) above
Chain of KRAS G12D (P01116 1-169 isoform P01116-2 G12D limits assumed): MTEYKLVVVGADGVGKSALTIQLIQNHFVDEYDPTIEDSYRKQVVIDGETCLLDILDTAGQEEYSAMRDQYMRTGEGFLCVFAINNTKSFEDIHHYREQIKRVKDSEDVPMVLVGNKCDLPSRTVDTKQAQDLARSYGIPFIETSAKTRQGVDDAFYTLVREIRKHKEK
Chain of KRAS G12D (P62937 whole entry): as the sequence (P62937 whole entry) above
Chain of NRAS G12C (P01111 whole entry G12C): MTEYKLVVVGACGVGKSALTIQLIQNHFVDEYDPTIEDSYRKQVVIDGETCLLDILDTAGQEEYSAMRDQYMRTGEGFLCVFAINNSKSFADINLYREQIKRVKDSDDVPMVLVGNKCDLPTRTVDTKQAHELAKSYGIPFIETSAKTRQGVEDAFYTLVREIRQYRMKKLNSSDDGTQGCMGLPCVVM
Chain of NRAS G12C (P62937 whole entry): as the sequence (P62937 whole entry) above
Chain of NRAS Q61K (P01111 whole entry Q61K): as the sequence (P01111 whole entry G12C) above, with C12G, Q61K counted along it
Chain of NRAS Q61K (P62937 whole entry): as the sequence (P62937 whole entry) above
Chain of NRAS WT (P01111 whole entry): as the sequence (P01111 whole entry G12C) above, with C12G counted along it
Chain of NRAS WT (P62937 whole entry): as the sequence (P62937 whole entry) above
Chain of KRAS G12V (P01116 1-169 isoform P01116-2 G12V limits assumed): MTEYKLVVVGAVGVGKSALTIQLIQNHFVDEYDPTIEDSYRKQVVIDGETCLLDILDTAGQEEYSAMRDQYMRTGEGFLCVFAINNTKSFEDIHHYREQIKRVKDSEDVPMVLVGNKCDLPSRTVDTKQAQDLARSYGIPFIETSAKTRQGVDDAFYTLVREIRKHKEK
Chain of KRAS G12V (P62937 whole entry): as the sequence (P62937 whole entry) above
Chain of NRAS Q61R (P01111 whole entry Q61R): as the sequence (P01111 whole entry G12C) above, with C12G, Q61R counted along it
Chain of NRAS Q61R (P62937 whole entry): as the sequence (P62937 whole entry) above
Chain of KRAS Q61H (P01116 1-169 isoform P01116-2 Q61H limits assumed): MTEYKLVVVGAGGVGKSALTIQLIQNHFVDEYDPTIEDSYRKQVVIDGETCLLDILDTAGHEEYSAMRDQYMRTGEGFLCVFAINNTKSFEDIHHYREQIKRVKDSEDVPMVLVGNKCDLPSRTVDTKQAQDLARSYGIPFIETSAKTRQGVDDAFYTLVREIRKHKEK
Chain of KRAS Q61H (P62937 whole entry): as the sequence (P62937 whole entry) above
Chain of KRAS G13C (P01116 1-169 isoform P01116-2 G13C): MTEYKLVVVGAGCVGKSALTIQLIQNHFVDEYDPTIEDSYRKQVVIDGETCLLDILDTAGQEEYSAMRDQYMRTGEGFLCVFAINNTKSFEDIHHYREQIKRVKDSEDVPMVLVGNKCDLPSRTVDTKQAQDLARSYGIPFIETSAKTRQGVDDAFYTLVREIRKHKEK
Chain of KRAS G13C (P62937 whole entry): as the sequence (P62937 whole entry) above

| Structure (SMILES) | IC50 [1] [nM] | IC50 [2] [nM] | IC50 [3] [nM] | IC50 [4] [nM] | IC50 [5] [nM] | IC50 [6] [nM] | IC50 [7, 15] [nM] | IC50 [8, 16] [nM] | IC50 [9, 17] [nM] | IC50 [10, 18] [nM] | IC50 [11, 19] [nM] | IC50 [12, 20] [nM] | IC50 [13, 21] [nM] | IC50 [14, 22] [nM] | also measured |
| --- | --- | --- | --- | --- | --- | --- | --- | --- | --- | --- | --- | --- | --- | --- | --- |
| CCn1c(-c2cccnc2[C@H](C)OC)c2c3cc(ccc31)-c1cc(O)cc(c1)C[C@H](NC(=O)[C@H](C(C)C)N(C)C(=O)C1CN(C)C1)C(=O)N1CCC[C@H](N1)C(=O)OCC(C)(C)C2 (atropisomer, axis not shown) [Example A124] | 10 to 100 | 100 to 1000 | 1000 to 10000 | 10 to 100 | 100 to 1000 | 1000 to 10000 | 10 to 100 | 10 to 100 | 10 to 100 | 100 to 1000 | 10 to 100 | 100 to 1000 | 10 to 100 | 100 to 1000 |  |
| CCn1c(-c2cccnc2[C@H](C)OC)c2c3cc(ccc31)-c1csc(n1)C[C@H](NC(=O)[C@H](C(C)C)N(C)C(=O)N1C[C@@H]3CN(C)C[C@@H]31)C(=O)N1CCC[C@H](N1)C(=O)OCC(C)(C)C2 (atropisomer, axis not shown) [Example A446] | 1000 to 10000 | 1000 to 10000 | > 10000 | 1000 to 10000 |  | > 10000 | > 10000 | 1000 to 10000 | 1000 to 10000 | 1000 to 10000 | 1000 to 10000 | 1000 to 10000 | 1000 to 10000 | > 10000 |  |
| CCn1c(-c2cccnc2[C@H](C)OC)c2c3cc(ccc31)-c1csc(n1)C[C@H](NC(=O)[C@H](C(C)C)N1CCC3(CCN(S(C)(=O)=O)C3)C1=O)C(=O)N1CCC[C@H](N1)C(=O)OCC(C)(C)C2 (mixture of isomers) [Example A220] | 1000 to 10000 | 1000 to 10000 | 1000 to 10000 | 1000 to 10000 |  | 1000 to 10000 |  |  |  |  |  |  |  |  |  |
| CCn1c(-c2cnccc2COC)c2c3cc(ccc31)-c1cc(O)cc(c1)C[C@H](NC(=O)[C@H](C(C)C)N(C)C(=O)[C@H]1CCN(S(=O)(=O)N3CC(O)C3)C1)C(=O)N1CCC[C@H](N1)C(=O)OCC(C)(C)C2 [Example A37, (2S)—N-[(8S,14S)-22-ethyl-4-hydroxy-21-[4-(methoxymethyl)pyridin-3-yl]-18,18-dimethyl-9,15-dioxo-16-oxa-10,22,28-triazapentacyclo[18.5.2.1^2,6.1^10,14.0^23,27]nonacosa-1(26),2,4,6(29),20,23(27),24-heptaen-8-yl]-2-{1-[(3S)-1-[(3-hydroxyazetidin-1-yl)sulfonyl]pyrrolidin-3-yl]-N-methylformamido}-3-methylbutanamide] | 10 to 100 | 1000 to 10000 | 1000 to 10000 | 100 to 1000 | 1000 to 10000 |  |  |  |  |  |  |  |  |  | IC50 ([7]; KRAS G12D FRET data, IC50): > 10000 nM; IC50 ([8]; KRAS G12S FRET data, IC50): 100 to 1000 nM; IC50 ([9]; KRAS G13C FRET data, IC50): 100 to 1000 nM; IC50 ([10]; KRAS G12C FRET data, IC50): 100 to 1000 nM; IC50 ([11]; KRAS G13D FRET data IC50, KRAS G13D): 1000 to 10000 nM; IC50 ([12]; NRAS G12C FRET data IC50, NRAS G12C): 100 to 1000 nM; IC50 ([13]; KRAS WT FRET data IC50, KRAS WT): 100 to 1000 nM; IC50 ([14]; KRAS G12V FRET data IC50, KRAS G12V): 100 to 1000 nM |
| CCn1c(-c2cnccc2COC)c2c3cc(ccc31)-c1cc(O)cc(c1)C[C@H](NC(=O)[C@H](C(C)C)N(C)C(=O)c1ncco1)C(=O)N1CCC[C@H](N1)C(=O)OCC(C)(C)C2 [Example A38] | 10 to 100 | 100 to 1000 | 100 to 1000 | 100 to 1000 | 1000 to 10000 |  | 1000 to 10000 | 100 to 1000 | 1000 to 10000 | 100 to 1000 | 100 to 1000 | 100 to 1000 | 100 to 1000 | 100 to 1000 |  |
